Where two headings read alike, the source gives them in different places.
Assays:
red blood cells = experiment: Avidin-Alexafluor fluorescence of RBCs modified with biotin-lipid construct; assay type: cell-based; parameters: key: 0 (no fluorescence observed); 4 (maximum fluorescence observed); settings: for fluorescence score (Avidin-AF), RBCs: Day 0
Experimental: A stock solution of Avidin-Alexafluor (Avidin-AF) was prepared in sterile phosphate buffered saline (PBS) at a concentration of 2 mg/mL. A stock solution of biotinylated gangliocide (BioG) was prepared in sterile PBS at a concentration of 5 mg/mL.
Incubations were performed in a plastic ependorf tube of nominal volume 1.5 mL for 2 hours at 37° C. in a water bath. O group RBCs were incubated with a solution of BioG at a concentration of 0.33 mg/mL as a positive control.
Incubated RBCs were washed 3 times with PBS in a mini centrifuge. Fluorescent labeling of the washed, modified RBCs was performed by adding 10 μL of a solution of Avidin-AF at a concentration of 0.1 mg/mL. The RBCs were then incubated in the dark for 1 hour at 37° C. in a water bath and washed 3 times with PBS.
85% solution of the washed, fluorescent labeled RBCs were viewed on a slide with cover slip under a fluorescent microscope at 488 nm and photographic exposure of 1.903 (FIG. 6). The intensity of the fluorescent signal was recorded using a scoring system of 0 (no fluorescence observed) to 4 (maximum fluorescence observed).
Retention of the construct by the RBCs was assessed by incubation with Avidin-AF as before.

murine embryos = experiment: Avidin-Alexafluor fluorescence of murine embryos modified with biotin-lipid construct; assay type: cell-based
Experimental: Murine embryos (morula/early blastocyst stage, 3.5 day) were incubated in 50 microlitre microdrops in Blastassist™ culture media.
The zona pellucida of the embryos was removed by treatment with 0.5% pronase (4 minute incubation) and washing 3 times in embryo handling media prior to introduction into the microdrops. Each microdrop was equilibrated 5% CO2 at 37° C. overnight prior to introduction of the embryos.
Microdrops containing embryos and BioG were incubated for 40 minutes in 5% CO2 at 37° C.
Following incubation each group of embryos was washed 3 times in handling media and transferred to 50 microlitre microdrops containing 2 mg/ml, Avidin-AF microdrops for fluorescent labelling. The microdrops containing transferred embryos were incubated at 37° C. for 30 minutes in the dark.
Each group of embryos was then washed 3 times in handling media and mounted on a glass microscope slide for viewing. Embryos were viewed under a fluorescent microscope at 488 nm. The intensity of the fluorescence was recorded using a scoring system of 0 (no fluorescence) to 4 (maximum fluorescence).

spermatozoa = test system: spermatozoa
Experimental: Spermatozoa were washed and isolated by layering 1.1 mL of fresh semen over a gradient of SpermGrad 125 (Vitrolife 10099; 2 mL of 40% solution over 2 mL of 80% solution in a 15 mL round bottom tube) and centrifuging at 500×g for 20 min.
The bottom layer of the gradient (c. 0.7 mL was transferred to 4 mL round bottom tubes and c. 2 mL flushing (handling) media (Medicult 10840125A) added. The tube was centrifuged at 300×g for 10 min and the spermatozoa washed two more times (mixing by tube inversion).
Samples of washed spermatozoa were incubated overnight at 37° C. in a 5% CO2 atmosphere.
Open tubes were incubated at 37° C. in a 5% CO2 atmosphere prior to addition of c. 70 μL spermatozoa (c. 25×10^6/mL) to each tube and incubation for 120 min (A), 60 min (B), 30 min (C), 10 min […] and 120 min (E).
Following incubation a couple of drops of flushing media were added and the tubes centrifuged at 300×g for 5 min. The spermatozoa were washed two more times with flushing media and before being re-suspended in culture media to a final volume of 100 μL.
Streptavidin beads at a concentration of c. 6.25×10^6/100 μL were diluted 35 times in BSA plus flushing media to provide a ratio of 0.1 beads/spermatozoa when mixed in equal volume with a diluted suspension of the modified spermatozoa.
A volume of 5 μL of a diluted suspension of the modified spermatozoa was mixed on a slide with 5 μL of a diluted suspension of streptavidin beads and covered with a coverslip.
The mixture was observed under a microscope at 400× magnification.
The assessment of the attachment of streptavidin beads to modified spermatozoa is recorded in Table 27.

RL95-2 monolayers [1] = test system: RL95-2 monolayers
Experimental: The modification of monolayers of the cell line RL95-2 (established from a human endometrial adenocarcinoma (ATCC HTB CRL 1671)) in serum-free and serum-containing media was evaluated.
D-MEM/F12 (Gibco 11320-033, Invitrogen NZ) containing 1% penicillin/streptomycin (Gibco 15140-122, Invitrogen NZ) was used as a serum-free medium. D-MEM/F12 10% FBS (Gibco 10091-130, Invitrogen NZ) containing 1% penicillin/streptomycin and […] insulin (Gibco 12585-014, Invitrogen NZ) was used as a serum-containing medium.
A suspension of the cell line RL95-2 was diluted in pre-warmed serum-containing media to the required concentration e.g. 4×10^5 cells/mL. A 25 μL volume of the suspension was used to seed the required wells in a Terasaki tray so that each treatment was performed in duplicate. The plates were incubated overnight in a 5% CO2, 37° C. incubator until the monolayer was approximately 60% confluent.
Trays were incubated at 37° C., 5% CO2 for 120 min.
The cells were then washed and a 12 μl volume of a 0.1 mg/mL solution of Avidin Alexa Fluor® 488 added. The cells were then incubated at room temperature for a further 30 minutes in the dark.
The monolayers were finally washed 3 times with PBS, the trays inverted and photographed using an Olympus BX51 fluorescent microscope at 200× magnification, exposure time 475 ms (FIG. 12).

A group red blood cells = settings: construct 1 mg/mL, 37° C. 2 hours; wells washed 3× with PBS
Experimental: A volume of 60 μL washed A group red blood cells (RBCs) was modified by incubation with 20 μL of the dilution of the construct at 37° C. for 2 hours.
The modified RBCs were washed twice in PBS and once in Celpresol™ as described above. A 2% cell suspension of washed cells (modified or control) was prepared in Celpresol™ and cell concentration (150×10^6/mL) determined using a haemocytometer. Similarly the concentration of a suspension streptavidin beads (134×10^6/mL) was determined.
A volume of 50 μL of a suspension of RBCs was added to provide a bead to RBC ratio of c. 1:1 and incubated at room temperature for 1 hour to allow RBCs to settle.
The wells were washed 3× with PBS, aspirating the washing solution with a pipette.

group 0 RBCs = settings: construct 0.5 mg/ml
Experimental: Unmodified group A RBCs were used as a second population of cells.
Both populations of cells were incubated for 37° C. for 2 hrs in a water bath and then washed 2× in PBS and 1× in Celpresol using an Immufuge II (low, 1 min). The concentration of cells in each suspension was made up to 2% by adding 1.5 mL.
The suspensions of RBCs were mixed with avidinylated magnetic Dynabeads at an approximate ratio of RBC:bead of 1 and incubated for 10 min at room temperature on a gyrator. Samples of the first and second populations of RBCs were then mixed in equal volumes (35 μl each) in an ependorf tube for two minutes.
The contents of the ependorf were transferred to the well of a 96-well plate and a magnet was applied to the underside of the well for 1 minute. The supernatant was carefully removed with the magnet applied and without disruption of the beads. The blood grouping of the cells of the supernatants were then assessed by applying 30 μl of supernatant and 30 μl anti-A antibody to a Dynamed™ gel card. Cards were spun for 10 min in a centrifuge.

RL95-2 monolayers [2] = test system: RL95-2 monolayers; remark: listed apart in the source
RL95-2 cells = settings: for Mean Fluorescence: T = 24 hr, Serum-containing

For Biotin-CMG(2)-Ad-DOPE, the “fluorescence score (Avidin-AF), RBCs” value (red blood cells; dilution 0.001 mg/ml) was 0, the “fluorescence score (Avidin-AF), RBCs” value (red blood cells; dilution 0.01 mg/ml) was 1 and the “fluorescence score (Avidin-AF), RBCs” value (red blood cells; dilution 0.1 mg/ml) was 2. The “fluorescence score (Avidin-AF), RBCs” value (red blood cells; dilution 1 mg/ml) was 4, the “fluorescence score (Avidin-AF), RBCs, retention” value (red blood cells; dilution 1 mg/ml, Day 14 of storage) was 4 and the “fluorescence score (Avidin-AF), murine embryos” value (murine embryos; 0.1 mg/mL, n = 21) was 2. The “fluorescence score (Avidin-AF), murine embryos” value (murine embryos; 1 mg/mL, n = 19) was 1, the “fluorescence score (Avidin-AF), murine embryos” value (murine embryos; 2 mg/mL, n = 19) was 1 and the “Number of beads attached to spermatozoa” value (spermatozoa; treatment A, incubation time 120 min, 30 min, with cross-linking) was 10-15 (with. The “Number of beads attached to spermatozoa” value (spermatozoa; treatment A, incubation time 120 min, Immediate) was 10-12, the “Number of beads attached to spermatozoa” value (spermatozoa; treatment B, incubation time 460 min, 30 min) was 8 and the “Number of beads attached to spermatozoa” value (spermatozoa; treatment C, incubation time 30 min, 30 min) was 3. The “Number of beads attached to spermatozoa” value (spermatozoa; treatment C, incubation time 30 min, Immediate) was 1-3, the “Number of beads attached to spermatozoa” value (spermatozoa; treatment D, incubation time 10 min, 30 min) was 1 and the “Number of beads attached to spermatozoa” value (spermatozoa; treatment D, incubation time 10 min, Immediate) was 1. The “Mean Fluorescence” value (RL95-2 monolayers [1]; 100 μg/mL, insertion time 30) was 3, the “fluorescence of RL95-2 cell membrane, serum-free media” value (RL95-2 monolayers [1]; construct 20, 100 and 500 μg/mL) was “homogenous intense fluorescent signal” and the “fluorescence of RL95-2 cell membrane, serum-containing media” value (RL95-2 monolayers [1]; same concentrations (20, 100 and 500 μg/mL)) was “weakened fluorescence”. For the same substance, the “intensity of fluorescence versus insertion time” value (RL95-2 monolayers [1]; serum-free media) was “increased with increasing insertion time”, the “retention of modified RBCs by streptavidin beads on magnet after washing” value (A group red blood cells) was “retained” and the “retention of modified group 0 RBCs by the magnet from mixture with unmodified group A RBCs” value (group 0 RBCs) was “Retention of the 0 group RBCs by the magnet was demonstrated”. For the same substance, the “internalisation of Avidin Alexa Fluor 488 fluorescence” value (RL95-2 monolayers [2]; incubated at 4° C.) was “No internalization was observed”, the “internalisation of Avidin Alexa Fluor 488 fluorescence” value (RL95-2 monolayers [2]; incubated at 37° C.) was “fluorescence starts to internalize within 4 hr” and the “Mean Fluorescence” value (RL95-2 cells; 20 μg/mL) was 0. For the same substance, the “Mean Fluorescence” value (RL95-2 cells; 100 μg/mL) was 0 and the “fluorescence 24 hr post-insertion, serum-free media” value (RL95-2 cells; RL95-2 cells, reduced from T=0) was “Fluorescence was detected”.

Source: patent US10919941B2, “Functional lipid constructs” (KODE BIOTECH LIMITED, priority 2007, dated 2021)
